In article PMC4426345 (ACS Infectious Diseases, 2014):
Converted amounts (≈) assume the structure as drawn.

What was measured:
replicating Mtb H37Rv = assay type: cell-based; conditions: Mycobacterium tuberculosis, read-out: MIC in MABA
[1] = tested on: M. tuberculosis H37Rv::pCHERRY3; assay type: cell-based, Mycobacterium tuberculosis; conditions: OD and fluorescence readouts, 5 d, listed as Ambien, 1

Cc1ccc(-c2nc3ccc(C)cn3c2CC(=O)N(C)C)cc1 [Compound 1, N,N-dimethyl-2-(6-methyl-2-p-tolyl-imidazo[1,2-a]pyridin-3-yl)acetamide]
MIC (replicating Mtb H37Rv): 49 to 53 µM (≈ 15.1 to 16.3 µg/mL)
MIC Mtb H37Rv 7H9-Tw-OADC [1]: 10 µM (≈ 3.07 µg/mL)
